Data on one compound can be found in patent publication US4294833A, “Substituted 4-hydroxy-isophthalic acid picolylamides having a pharmaceutical activity in thromboembolic disorders” (Societa Italo-Britannica, priority 1977, dated 1981).

By inhibition in vivo is commonly meant the percentage by which the read-out fell short of the control. The low end stands for a response near the control, the high end for a response far below the control.

Series [1] relates to platelet aggregation induced by ADP. In words: Platelet aggregation inhibitory activity in vivo (Born aggregometer), ADP-induced. Also on record: species or system New Zealand rabbits. Particulars: Oryctolagus cuniculus, Platelet, ip, dose for 50% inhibition of ADP-induced aggregation curve; rabbits, intraperitoneal, blood 2, 4 and 6 hours after injection; read-out: platelet antiaggregant activity (AAP), DI50, ADP. The essentials: (§1)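 Fasted New Zealand rabbits under Nembutal anaesthesia (35 mg/kg i.m.) received compound intraperitoneally. Carotid blood was taken before and 2, 4 and 6 h after dosing and citrated to prepare PRP for ADP- or thrombin-induced Born aggregometry. DI50 (mg/kg) is the dose halving the aggregation curve relative to the same animal's pre-dose plasma.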

For another series, the system named is blood coagulum. The series can be described thus: Fibrinolytic activity, Fearnley method (lysis of blood coagulum in toto). The conditions noted are these: Oryctolagus cuniculus, ip, 0.5 h, percent decrease of coagulum weight after 30 minutes at 37° C.; 25 mg/kg intraperitoneal, rabbits; read-out: fibrinolytic activity (FL). The class given is in vivo. The method in brief:
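Rabbits received compounds at 25 mg/kg i.p., and 0.2 ml ear-vein blood was drawn before and after dosing. Blood was mixed with pH 7.4 phosphate buffer and thrombin (50 NIH units/ml solution), held 30 min on ice, then 30 min at 37 °C. Activity is the percent decrease in clot weight.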

Series [2] deals with platelet aggregation induced by thrombin. The series can be described thus: Platelet aggregation inhibitory activity in vivo (Born aggregometer), thrombin-induced. The arrangement: species or system New Zealand rabbits. Particulars: Oryctolagus cuniculus, Platelet, ip, dose for 50% inhibition of thrombin-induced aggregation curve; rabbits, intraperitoneal, blood 2, 4 and 6 hours after injection; read-out: platelet antiaggregant activity (AAP), DI50, Thrombin. The essentials: as §1

Series [3] concerns thrombin-induced coagulation of platelet rich plasma. The series can be described thus: Antithrombin activity on PRP, Hartert's thromboelastograph. Type of series: in vivo, New Zealand rabbits. The conditions noted are these: Oryctolagus cuniculus, Platelet, ip, percent decrease of index ma/[r+k] vs before treatment; 20 mg/kg intraperitoneal, rabbits. The method in brief: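 Compounds were given intraperitoneally at 20 mg/kg, and coagulation of platelet rich plasma was then induced with thrombin (60 units, pH 7.4) and recorded on a Hartert thromboelastograph. Activity is the percent decrease of the ma/(r+k) index relative to the pre-treatment value.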

Series [4] can be described thus: Acute toxicity, intraperitoneal. Particulars: mouse, in vivo, ip, male Swiss mice, intraperitoneal, 7 days observation; preliminary, by graphic interpolation; read-out: acute toxicity (LD50 / DL50). The method in brief: (§2)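 Male Swiss mice (20±2 g), fasted 18 h with water ad libitum, were dosed intraperitoneally and observed for 7 days for symptoms and deaths. Preliminary LD50 (mg/kg) was obtained by graphic interpolation.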

The next series has as its system male Swiss mice. In words: Acute toxicity, intraperitoneal. The conditions noted are these: mouse, in vivo. The essentials:
as §2

Series [5] has as its system CaCl2-induced plasma coagulation. The series can be described thus: Anticoagulant activity on PRP, Hartert's thromboelastograph. Type of series: in vivo, New Zealand rabbits. Particulars: Oryctolagus cuniculus, ip, percent increase of total time for coagulum formation (r+k) vs before treatment; 25 mg/kg intraperitoneal, rabbits; read-out: anticoagulant activity (AC). The method in brief: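 Animals dosed at 25 mg/kg i.p.; PRP coagulation induced with 1.29% CaCl2 and followed by Hartert thromboelastography. Activity given as percent increase in r+k (total coagulum formation time) after treatment versus pre-treatment value.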

As to `CCCCCCOc1ccc(C(=O)NCc2cccnc2)cc1C(=O)NCc1cccnc1` [Example 4], the values for the ED50 in series [1] and in series [2] were 22.9 mg/kg and 17.3 mg/kg, respectively. Moreover, the fibrinolytic activity (percent decrease of coagulum weight) at 25 mg/kg with blood coagulum is 41.3%. Besides, testing at 20 mg/kg in series [3] gave an inhibition in vivo of 47.6%. Besides, the LD50 at 168 h in series [4] was found to be 175 mg/kg. Also, in the series with male Swiss mice, the “acute toxicity (in words)” value is recorded as “the acute toxicity increases with an increasing number of carbon atoms in the substituent R"”. Moreover, the change in vivo at 25 mg/kg in series [5] was determined as 19.5%.
